Measured values reported in patent publication US20240018146A1, “COMPOSITIONS AND METHODS OF USING THE SAME FOR TREATMENT OF NEURODEGENERATIVE AND MITOCHONDRIAL DISEASE” (MITOKININ, INC., priority 2020, published 2024).
Entries after “also recorded” stand apart in the source; their conditions may differ. Read-outs that look alike come from different tables or passages of the source.

Assays:
HeLa MKYP cells [1] = experiment: Cell death measured by DAPI staining, with 1 μM FCCP/oligomycin or no toxin (no FO); type: cell-based
How it was run: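 HeLa MKYP cells were treated with compounds alongside 1 μM FCCP/oligomycin or no toxin for 6 or 6.5 h. Cell death was scored by DAPI staining, with H2O2 treatment as the death control.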

[2] = Inspection of crystallization and round cells; type: physicochemical; set-up: key: 1=yes crystals; 0=no crystals
Experimental: 5. Inspection of Crystallization and Round Cells
Briefly, the Hela MKYP (Mito-Keima/YFP-Parkin) cells were seeded at 10K cells/well. EP/MTK compounds were added at seeding (cells were still in suspension). The cells were incubated with the EP/MTK compounds for 16 hours, then 1 μM FCCP/oligomycin was added for 6 hours. Prior to harvesting, cells were scored by eye under 20× magnification for the presence or absence of crystalline or aggregated compound, or round cells.

Parkin = Parkin recruitment to mitochondria (HeLa cells expressing YFP-tagged Parkin, longitudinal imaging); type: cell-based, human; details: FCCP and Oligomycin, cells with Parkin recruited at 60 minutes, FIG. 29
Experimental: HeLa cells expressing a YFP-tagged Parkin were treated with […] of FCCP and Oligomycin followed by the specified dose of compound, then analyzed by longitudinal imaging. Percentage of cells with Parkin recruited to mitochondria at 60 minutes is shown.

HeLa MKYP cells [3] = experiment: Human mitophagy assay (HeLa mKeima assay, FACS); type: cell-based; details: for percentage of cells undergoing mitophagy: HeLa cells expressing mtKeima, FCCP and Oligomycin, FACS, FIG. 28; for EC50: Homo sapiens, HeLa
How it was run: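 HeLa cells carrying the pH-sensitive mtKeima tag incubated 16 h with compound at several concentrations, then 1 uM FCCP/oligomycin for 6 h. FACS detects mitochondria in lysosomes through the Keima emission shift, quantified as percentage of cells in mitophagy.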

pS129 α-syn = experiment: Preformed fibril (PFF) model in primary neuron culture, pS129 α-syn; type: cell-based; details: for pS129 α-syn (250-12) in primary neuron culture / pS129 α-syn (monomer) in primary neuron culture / pS129 α-syn in primary neuron culture: increasing doses
Experimental: 4. Preformed Fibril Model
(§1) Mouse and human alpha-synuclein monomers have been sourced commercially, then pre-formed fibrils have been generated as per the detailed protocol provided by the MJFF. For in vitro experiments primary hippocampal neurons isolated from P0 pups were grown for 7 days after which PFFs at 5 ug/ml were introduced Pre-formed fibrils will be introduced via stereotactic injection into the striatum of wt (C57BL/6J, Jax #000664) and transgenic A53T mice (B6;C3-Tg(Prnp-SNCA*A53T)83Vle/J, Jax #004479). Cohorts of drug-treated (oral gavage) and untreated animals will then be allowed to age for up to 6 months, at which point they will be sacrificed and perfused. Brains will be removed and fixed, then sectioned for analysis. We anticipate that untreated A53T animals will show significant spreading of aggregated alpha-synuclein pathology and pS129 staining, as well as some possible neurodegeneration; wt animals are also expected to show pS129 synuclein staining and synuclein aggregation, albeit less than that seen in the A53T background.

[4] = Mitotoxicity / Mitotox safety margin (therapeutic window); type: cell-based
Gdf15, Tnfrsf12a = experiment: Cisplatin challenge, kidney expression of mitochondrial-stress related genes (quantitative PCR); type: in vivo, mice (C57Bl/6); details: 10 mg/kg cisplatin i.p., oral gavage QD for three days
Experimental: (§2) Mice were provided at least one week of acclimation to the animal facility and group housed. Mice were injected intraperitoneally with 1 mg/ml cisplatin solution (BluePoint Labs) or 10 ml/kg sterile-filtered saline using 29G insulin syringes. Mice were weighed and administered vehicle, 35985 or 40180 by oral gavage per the dosing regimens noted in the figures. Mice were monitored for excessive weight loss and euthanized if moribund.
(§3) 35985 and 40180 are formulated at ten-fold the dosing concentration in NMP (N-methylpyrrolidone) followed by dilution with solutol-15 and water for a final vehicle concentration of 10% NMP/10% solutol-15/80% water.
RNA was isolated from kidney samples using Rneasy Mini kit (Qiagen) according to its product manual. RNA concentration was measured using NanoDrop™ 2000/2000c Spectrophotometers (Thermo Scientific). 50 ng of RNA for each sample was used to generate cDNA. cDNA was synthesized using High-Capacity RNA-to-cDNA™ Kit (Thermo Scientific) according to its product manual. Quantitative PCR was performed using Power SYBR™ Green PCR Master Mix (Applied Biosystems) according to its product manual. The following primers were used to analyze gene expression levels in the kidney: […]
All gene expression levels were normalized to expression levels of beta-actin using ΔΔCt and expressed as fold change relative to cisplatin vehicle treated mice. […]

pathologic (pS129) α-syn = experiment: In vivo α-syn (PFF) model, pathologic pS129 α-syn in striatum; set-up: species or system mice; details: oral BID dosing at 50, 25, 12.5, and 6.25 mg/kg
Experimental: FIG. 9A and FIG. 9B show representative in vivo data of EP-0040180 in an α-syn (PFF) model.
as §1

KIM-1 = experiment: Cisplatin challenge, kidney injury marker (KIM-1) in urine; type: in vivo, mice (C57Bl/6); details: 10 mg/kg cisplatin i.p., oral gavage QD, day 3 post-challenge
Experimental: as §2, §3
Urine was collected from scruffed mice (serial collection) or directly from bladder using insulin syringe during harvest (terminal collection). KIM-1 was measured in mouse urine using R&D System's Mouse TIM-1/KIM-1/HAVCR DuoSet ELISA following manufacturer's published protocol.
Referring to FIG. 36, mice (C57Bl/6) were challenged with a single intraperitoneal dose of 10 mg/kg cisplatin or saline and dosed by oral gavage once per day (QD) with 40180.

cleaved caspase-3 = experiment: Cleaved caspase-3 levels in primary neuron culture; type: cell-based; details: compared with toxins

FC(F)(F)c1cc2c(NC3CCCc4ccccc43)ncnc2[nH]1 (single isomer, unassigned) [EP-0035985]
E105 death at 8.3 μM (no FO) (HeLa MKYP cells [1]; 8.3 μM compound, no FO): 2.54 | E104 death at 25 μM (no FO) (HeLa MKYP cells [1]; 25 μM compound, no FO): 3.01 | E103 max death with 1 μM FO (HeLa MKYP cells [1]; with 1 μM FO): 8.14 | visual inspection of crystallization ([2]; 0.1 μM compound): 0 | visual inspection of crystallization ([2]; 0.3 μM compound): 0 | visual inspection of crystallization ([2]; 0.9 μM compound): 0 | visual inspection of crystallization ([2]; 2.8 μM compound): 0 | visual inspection of crystallization ([2]; 8.3 μM compound): 0 | visual inspection of crystallization ([2]; 25.0 μM compound, HeLa MKYP culture, 20× magnification): 0 | Parkin recruitment to mitochondria (Parkin): accelerate recruitment of Parkin to mitochondria; also recorded: dose responsive increase in the rate of Parkin recruitment to mitochondria | E102 max mitophagy, fold over DMSO (HeLa MKYP cells [3]; 1 μM FCCP/oligomycin): 4.43 fold over DMSO | percentage of cells undergoing mitophagy (HeLa MKYP cells [3]): induce mitophagy in a dose dependent manner; also recorded: dose responsive increase in the percentage of cells undergoing mitophagy | EC50 (HeLa MKYP cells [3]; mitophagy, 1 μM FCCP/oligomycin, read-out: E100 EC50): 330 nM | E101 lowest effective dose (HeLa MKYP cells [3]; mitophagy, 1 μM FCCP/oligomycin): 0.31 µM | pathological α-synuclein levels in primary neurons (pS129 α-syn; FIG. 8A-C): reduce pathological α-synuclein levels

c1ccc2c(c1)OC[C@H](N1CCOCC1)[C@H]2Nc1ncnc2[nH]c(C3CC3)cc12 (single isomer, unassigned) [EP-0040180]
Mito-Safety Index (highest safe dose/EC50) ([4]; highest safe dose/EC50): 97.54 | Highest safe dose (μM) (mitotox or cytotox) ([4]; mitotox or cytotox): 25.0 µM | Highest safe dose (cytotoxicity; no FO; safe means DAPI+ <20%) (HeLa MKYP cells [1]; no FO, safe means DAPI+ <20%): 25.0 µM | Max % death with 1 μM FO (HeLa MKYP cells [1]; with 1 μM FO): 10.4% | expression of mitochondrial-stress related genes Gdf15 and Tnfrsf12a in kidney (Gdf15, Tnfrsf12a): reduced expression of these genes in a dose-responsive manner; also recorded: reduces expression of mitochondrial-stress related genes | Parkin recruitment to mitochondria (Parkin): accelerate recruitment of Parkin to mitochondria; also recorded: dose responsive increase in the rate of Parkin recruitment to mitochondria | pathologic (pS129) α-syn (250-12) from the striatum induced by PFF challenge (pathologic (pS129) α-syn): significantly reduces | pathologic (pS129) α-syn (monomer) from the striatum induced by PFF challenge (pathologic (pS129) α-syn): significantly reduces | percentage of cells undergoing mitophagy (HeLa MKYP cells [3]): induce mitophagy in a dose dependent manner; also recorded: dose responsive increase in the percentage of cells undergoing mitophagy | EC50 (HeLa MKYP cells [3]; read-out: Mitophagy induction EC50): 260 nM | KIM-1 (kidney-injury marker 1), urine (KIM-1): dose-dependent rescue of KIM-1; also recorded: reduces KIM-1 | pS129 α-syn (250-12) in primary neuron culture (pS129 α-syn): reduces | pS129 α-syn (monomer) in primary neuron culture (pS129 α-syn): reduces | pS129 α-syn in primary neuron culture (pS129 α-syn): reduces | cleaved caspase-3 levels (cleaved caspase-3): do not significantly alter

FC(F)(F)c1cc2c(N[C@H]3c4ccccc4CC[C@@H]3N3C[C@@H]4COC[C@H]4C3)ncnc2[nH]1 (single isomer, unassigned) [EP-0040270]
pS129 α-syn (250-12) in primary neuron culture (pS129 α-syn): reduces | pS129 α-syn (monomer) in primary neuron culture (pS129 α-syn): reduces | pS129 α-syn in primary neuron culture (pS129 α-syn): reduces | cleaved caspase-3 levels (cleaved caspase-3): increase cleaved caspase-3 levels
